Data as given in PubChem BioAssay AID328 (DTP/NCI, 2004).
Values joined by “and” are separate entries in the source; they are usually repeats but may differ in a detail not shown here. Equal entries are not always repeated. Toxic doses and inconclusive results are not listed. How the source made its calls: active means survival T/C of 150% or more; inactive means T/C below 125% in these data.

Tested on: BDF1 mice, P388 leukemia ip, median survival T/C
Assay: NCI In Vivo Anticancer Drug Screen. Data for tumor model P388 Leukemia (intraperitoneal) in B6D2F1 (BDF1) mice
Settings: endpoint: median survival time, higher = longer survival
Method in brief: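 Each value expresses how treatment altered survival: treated-mouse outcome over vehicle-mouse outcome, both groups bearing the transplanted tumour.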

[1] = dose: 100.0 mg/kg/injection, schedule: Q01DX009 (ip), vehicle: saline with Tween-80
[2] = dose: 200.0 mg/kg/injection, schedule: Q01DX009 (ip), vehicle: saline with Tween-80
[3] = dose: 400.0 mg/kg/injection, schedule: Q01DX009 (ip), vehicle: saline with Tween-80
[4] = dose: 50.0 mg/kg/injection, schedule: Q01DX009 (ip), vehicle: saline
[5] = dose: 100.0 mg/kg/injection, schedule: Q01DX009 (ip), vehicle: saline
[6] = dose: 100.0 mg/kg/injection, schedule: Q04DX003 (ip), vehicle: saline
[7] = dose: 200.0 mg/kg/injection, schedule: Q01DX009 (ip), vehicle: saline
[8] = dose: 200.0 mg/kg/injection, schedule: Q04DX003 (ip), vehicle: saline
[9] = dose: 400.0 mg/kg/injection, schedule: Q04DX003 (ip), vehicle: saline
[10] = dose: 25.0 mg/kg/injection, schedule: Q01DX009 (ip), vehicle: Klucel (hydroxypropylcellulose) (HPC)
[11] = dose: 50.0 mg/kg/injection, schedule: Q04DX003 (ip), vehicle: saline with Tween-80
[12] = dose: 100.0 mg/kg/injection, schedule: Q01DX009 (ip), vehicle: Klucel (hydroxypropylcellulose) (HPC)
[13] = dose: 100.0 mg/kg/injection, schedule: Q04DX003 (ip), vehicle: Klucel (hydroxypropylcellulose) (HPC)
[14] = dose: 200.0 mg/kg/injection, schedule: Q01DX009 (ip), vehicle: Klucel (hydroxypropylcellulose) (HPC)
[15] = dose: 200.0 mg/kg/injection, schedule: Q04DX003 (ip), vehicle: Klucel (hydroxypropylcellulose) (HPC)
[16] = dose: 400.0 mg/kg/injection, schedule: Q04DX003 (ip), vehicle: Klucel (hydroxypropylcellulose) (HPC)
[17] = dose: 25.0 mg/kg/injection, schedule: Q01DX009 (ip), vehicle: saline with Tween-80
[18] = dose: 100.0 mg/kg/injection, schedule: Q04DX003 (ip), vehicle: saline with Tween-80
[19] = dose: 200.0 mg/kg/injection, schedule: Q04DX003 (ip), vehicle: saline with Tween-80
[20] = dose: 50.0 mg/kg/injection, schedule: Q01DX009 (ip), vehicle: saline with Tween-80

Measured: T/C

COc1ccc(-c2c(C)c(C(=O)O)nc(-c3ccc4c(O)c(OC)c5c(c4n3)=NC(C)(C)N=5)c2N)c(O)c1OC
inactive: dose: 1.0 mg/kg/injection, schedule: Q01DX010 (ip), vehicle: other 90 % of control | dose: 2.0 mg/kg/injection, schedule: Q01DX010 (ip), vehicle: other 118 % of control | dose: 4.0 mg/kg/injection, schedule: Q01DX010 (ip), vehicle: other 118 % of control | dose: 5.0 mg/kg/injection, schedule: Q01DX010 (ip), vehicle: water 100 % of control | dose: 10.0 mg/kg/injection, schedule: Q01DX010 (ip), vehicle: water 95 % of control

CC(C)Oc1ccc2c(c1)Sc1ccc(Cl)cc1N2
inactive: [1] 104 % of control | [2] 104 % of control | [3] 104 % of control

NC(N)=NCCCC(=O)O
inactive: [4] 104 % of control | [5] 94 % of control and 103 % of control | [6] 95 % of control | [7] 101 % of control and 103 % of control | [8] 100 % of control | dose: 400.0 mg/kg/injection, schedule: Q01DX009 (ip), vehicle: saline 92 % of control and 106 % of control | [9] 104 % of control

NC(=O)c1ncc(-c2ccccc2)[nH]c1=O
inactive: [4] 104 % of control | [5] 100 % of control | [7] 109 % of control

CN(C)CC/C=C1\c2ccccc2C(C)(C)c2ccc(Cl)cc21
inactive: dose: 6.0 mg/kg/injection, schedule: Q04DX003 (ip), vehicle: saline with Tween-80 95 % of control | dose: 6.25 mg/kg/injection, schedule: Q01DX009 (ip), vehicle: Klucel (hydroxypropylcellulose) (HPC) 100 % of control | dose: 11.0 mg/kg/injection, schedule: Q04DX003 (ip), vehicle: saline with Tween-80 104 % of control | dose: 12.5 mg/kg/injection, schedule: Q01DX009 (ip), vehicle: Klucel (hydroxypropylcellulose) (HPC) 111 % of control | dose: 16.5 mg/kg/injection, schedule: Q01DX009 (ip), vehicle: Klucel (hydroxypropylcellulose) (HPC) 90 % of control and 100 % of control | dose: 22.0 mg/kg/injection, schedule: Q04DX003 (ip), vehicle: saline with Tween-80 104 % of control | [10] 88 % of control and 100 % of control | dose: 33.0 mg/kg/injection, schedule: Q04DX003 (ip), vehicle: saline with Tween-80 100 % of control and 104 % of control | dose: 37.5 mg/kg/injection, schedule: Q01DX009 (ip), vehicle: Klucel (hydroxypropylcellulose) (HPC) 90 % of control and 92 % of control | [11] 110 % of control and 112 % of control | dose: 55.0 mg/kg/injection, schedule: Q01DX009 (ip), vehicle: Klucel (hydroxypropylcellulose) (HPC) 95 % of control | dose: 75.0 mg/kg/injection, schedule: Q04DX003 (ip), vehicle: saline with Tween-80 115 % of control and 120 % of control | dose: 85.0 mg/kg/injection, schedule: Q01DX009 (ip), vehicle: Klucel (hydroxypropylcellulose) (HPC) 87 % of control | dose: 125.0 mg/kg/injection, schedule: Q01DX009 (ip), vehicle: Klucel (hydroxypropylcellulose) (HPC) 95 % of control

CC(=O)OC/C(=N\Nc1ccc([N+](=O)[O-])cc1[N+](=O)[O-])c1ccccc1
inactive: dose: 3.13 mg/kg/injection, schedule: Q01DX001 (ip), vehicle: saline with Tween-80 104 % of control | dose: 6.25 mg/kg/injection, schedule: Q01DX001 (ip), vehicle: saline with Tween-80 100 % of control | dose: 12.5 mg/kg/injection, schedule: Q01DX001 (ip), vehicle: saline with Tween-80 95 % of control

C[C@]12CCC(=O)C=C1CC[C@H]1[C@@H]3C[C@@H](O)[C@](O)(C(=O)CO)[C@@]3(C)C[C@H](O)[C@@]12F
inactive: [5] 108 % of control | [6] 108 % of control | [7] 87 % of control | [8] 116 % of control | [9] 100 % of control

N#C/C(=C1C=C(Br)/C(=N\O)C=C\1Cl)c1ccc(Cl)cc1
inactive: [10] 115 % of control | dose: 50.0 mg/kg/injection, schedule: Q01DX009 (ip), vehicle: Klucel (hydroxypropylcellulose) (HPC) 110 % of control | [12] 115 % of control and 123 % of control | [13] 100 % of control | dose: 150.0 mg/kg/injection, schedule: Q01DX009 (ip), vehicle: Klucel (hydroxypropylcellulose) (HPC) 109 % of control | [14] 123 % of control | [15] 118 % of control | dose: 225.0 mg/kg/injection, schedule: Q01DX009 (ip), vehicle: Klucel (hydroxypropylcellulose) (HPC) 109 % of control | [16] 113 % of control

CC1=Nc2ccccc2N(C)/C1=C/C1=C(Cl)C(=O)c2ccccc2C1=O
inactive: dose: 25.0 mg/kg/injection, schedule: Q01DX001 (ip), vehicle: saline with Tween-80 103 % of control | dose: 50.0 mg/kg/injection, schedule: Q01DX001 (ip), vehicle: saline with Tween-80 94 % of control | dose: 100.0 mg/kg/injection, schedule: Q01DX001 (ip), vehicle: saline with Tween-80 108 % of control

Cc1ccc2c(c1)N=C(Nc1ccccc1)N=S2(C)=O (stereo not given)
active: [1] 160 % of control
inactive: [17] 123 % of control

CC1CCC2(CC1)NC(=O)N(CNc1ccccc1)C2=O (stereo not given)
inactive: [11] 100 % of control | [18] 87 % of control | [19] 100 % of control

COc1ccc2c(Cl)cc(NC(=O)Nc3c(C)cccc3C)nc2c1
inactive: [1] 88 % of control

O=C(/C=C/c1ccc2c(c1)OCO2)c1ccc(Cl)cc1
inactive: [11] 100 % of control | [18] 100 % of control | [19] 100 % of control

O=C1C(Br)=Cc2cccc3cccc1c23
230 % of control and 107 % of control: [2]
inactive: [17] 111 % of control | [20] 105 % of control | [1] 107 % of control | [18] 95 % of control | [19] 104 % of control | [3] 100 % of control | dose: 400.0 mg/kg/injection, schedule: Q04DX003 (ip), vehicle: saline with Tween-80 104 % of control

Nc1nc(=S)c2[nH]c(N=Nc3ccc(S(=O)(=O)Nc4nccs4)cc3)nc2[nH]1
inactive: dose: 25.0 mg/kg/injection, schedule: Q01DX001 (ip), vehicle: Klucel (hydroxypropylcellulose) (HPC) 115 % of control | dose: 100.0 mg/kg/injection, schedule: Q01DX001 (ip), vehicle: Klucel (hydroxypropylcellulose) (HPC) 117 % of control | dose: 200.0 mg/kg/injection, schedule: Q01DX001 (ip), vehicle: Klucel (hydroxypropylcellulose) (HPC) 120 % of control

ClCCN(CCCl)c1ccc2c3c(cccc13)-c1ccccc1-2
active: dose: 66.0 mg/kg/injection, schedule: Q01DX009 (ip), vehicle: saline with Tween-80 151 % of control | [1] 177 % of control | dose: 132.0 mg/kg/injection, schedule: Q04DX003 (ip), vehicle: saline with Tween-80 160 % of control | dose: 150.0 mg/kg/injection, schedule: Q01DX009 (ip), vehicle: saline with Tween-80 214 % of control | [19] 182 % of control | dose: 300.0 mg/kg/injection, schedule: Q04DX003 (ip), vehicle: saline with Tween-80 226 % of control

O=c1ccccn1C/C(=N\O)c1ccccc1
inactive: [12] 95 % of control | [13] 100 % of control | [14] 95 % of control | [15] 95 % of control | dose: 400.0 mg/kg/injection, schedule: Q01DX009 (ip), vehicle: Klucel (hydroxypropylcellulose) (HPC) 100 % of control | [16] 100 % of control

O=C(NC(=O)c1c(F)cccc1F)Nc1ccc(Cl)c(Cl)c1
inactive: [17] 96 % of control | [20] 97 % of control | [1] 100 % of control

S=c1[nH]nc2n1NC(c1ccoc1)=NN2
inactive: dose: 25.0 mg/kg/injection, schedule: Q04DX003 (ip), vehicle: saline with Tween-80 122 % of control | [11] 100 % of control | [18] 113 % of control

O=[N+]([O-])C(Cl)(Cl)C(Cl)(Cl)[N+](=O)[O-]
inactive: dose: 1.25 mg/kg/injection, schedule: Q01DX009 (ip), vehicle: other 100 % of control | dose: 2.5 mg/kg/injection, schedule: Q01DX009 (ip), vehicle: other 100 % of control | dose: 2.5 mg/kg/injection, schedule: Q04DX003 (ip), vehicle: other 87 % of control | dose: 5.0 mg/kg/injection, schedule: Q01DX009 (ip), vehicle: other 95 % of control | dose: 5.0 mg/kg/injection, schedule: Q04DX003 (ip), vehicle: other 104 % of control
